Patent US5871946A, “Method for determining activity of enzymes in metabolically active whole cells” (priority 1995, dated 1999)
Where “and” joins values, the source holds several entries; their conditions need not be identical. Equal values may be shown once.

Tests used:
Format in all cases: cell-based, human
[1] = tested on: cells of normals and HIV + patients; assay: Substrate panel in cells of normals and HIV+ patients, possible TB infection (Table 4)
Method: A panel of assay compounds are assembled consisting of Ala-aminopeptidase and Lys-aminopeptidase, Dipeptidyl peptidase IV (Ala-Ala)2 rhodamine 110 and Cathepsin D to indicate possible TB infection in AIDS related cases.
A panel of enzymatic substrates is performed consisting of Ala-aminopeptidase and Lys-aminopeptidase, Dipeptidyl peptidase IV (Ala-Ala)2 rhodamine 110 and Cathepsin D to indicate possible TB infection in AIDS related cases.

[2] = tested on: MONOCYTES; assay: Disease to normal ratio of enzyme activity, monocytes (Table 5)
Source text: (§1) A normal in house adult donor pool was drawn, recording sex and determining that no known disease state was present at the time of sample draw. Criteria for rejecting samples included patients under medication, patients with infection or inflammation of any type, colds and flu as well as any known medical illness such as cancer, heart ailment and high blood pressure. A donor list of 75 patients has been developed and a mean and 2 sd range established. A subgroup of "super normals" was developed from this list by examining the 75 patients to determine which group falls closest to the mean for all enzymes in all cell types tested. These patients were used as the "wellness index" or best group of "normalcy" patients. If a study required the use of children or newborns then this same format was used to develop a data base for these age groups.

[3] = tested on: LYMPHOCYTES; assay: Disease to normal ratio of enzyme activity, lymphocytes (Table 5)
Source text: as §1

[4] = Inflam. Bowel Dis., monocytes section

SMILES | MEAN DELTA FL ([1]; HIV + PATIENTS) | MEAN DELTA FL ([1]; HIV + PATIENTS, listed as LYS--ALA^1) | MEAN DELTA FL ([1]; NORMALS) | MEAN DELTA FL ([1]; NORMALS, listed as LYS--ALA^1) | Ratio of disease to normal ([2]; Dermatomyositis, monocytes) | Ratio of disease to normal [2, 4] | Ratio of disease to normal ([2]; JRA, monocytes) | Ratio of disease to normal ([2]; Kawasaki's, monocytes) | Ratio of disease to normal ([2]; Lupus, monocytes) | Ratio of disease to normal ([2]; Rheumatic Fever, monocytes) | Ratio of disease to normal ([3]; Dermatomyositis) | Ratio of disease to normal ([3]; Inflam. Bowel Dis.) | Ratio of disease to normal ([3]; JRA) | Ratio of disease to normal ([3]; Kawasaki's) | Ratio of disease to normal ([3]; Lupus) | Ratio of disease to normal ([3]; Rheumatic Fever)
C[C@H](NC(=O)[C@@H](N)CCCCN)C(=O)Nc1ccc2c(c1)Oc1cc(NC(=O)[C@H](C)NC(=O)[C@@H](N)CCCCN)ccc1C21OC(=O)c2ccccc21 [LYS--ALA^2] | 7.9 | 121.5 | 7.6 | 112.6 | – | – | – | – | – | – | – | – | – | – | – | –
CC(=O)Oc1ccc2c(c1)Oc1cc(OC(C)=O)ccc1C21OC(=O)c2ccccc21 [FDA-NAF, reference compound] | – | – | – | – | 1.03 | 1.11 | 0.35 | 0.58 | 0.83 | 0.89 | 1.14 | 0.89 | 0.21 | 0.30 | 0.74 | 0.97
O=C1OC2(c3ccc(OP(=O)(O)O)cc3Oc3cc(OP(=O)(O)O)ccc32)c2ccccc21 [DPO4, (PO4)2 fluorescein] | – | – | – | – | – | – | 1.13 | – | – | 1.09 | – | – | – | – | – | –
C[C@H](NC(=O)[C@@H](N)CCCCN)C(=O)Nc1ccc2c(c1)Oc1cc(NC(=O)[C@H](C)NC(=O)[C@@H](N)CCCCN)ccc1C21OC(=O)c2ccccc21 [KA-M, (Lys-Ala)2 Rho 110] | – | – | – | – | 1.55 | – | 12.14 | 7.08 | 14.08 | 15.36 | 1.93 | 1.63 | 1.46 | 1.32 | 1.06 | 2.07
CC(C)[C@H](N)C(=O)N[C@@H](CCCCN)C(=O)Nc1ccc2c(c1)Oc1cc(NC(=O)[C@H](CCCCN)NC(=O)[C@@H](N)C(C)C)ccc1C21OC(=O)c2ccccc21 [VK, (Val-Lys)2 Rho 110] | – | – | – | – | 1.42 | 3.08 | 5.94 | 5.38 | 1.64 | 1.32 | 1.39 | 1.08 | – | 1.19 | 1.25 | –
O=C(NCC(=O)N1CCC[C@H]1C(=O)Nc1ccc2c(c1)Oc1cc(NC(=O)[C@@H]3CCCN3C(=O)CNC(=O)OCc3ccccc3)ccc1C21OC(=O)c2ccccc21)OCc1ccccc1 [Z-GP, (carbobenzyloxycarbonyl-Gly-Pro)2 Rho 110] | – | – | – | – | – | 1.64 | 1.34 | 4.06 | 1.88 | 3.56 | 1.73 | 1.73 | 1.29 | – | 1.93 | 3.23
O=C(NCC(=O)N1CCC[C@H]1C(=O)Nc1ccc2c(c1)Oc1cc(NC(=O)[C@@H]3CCCN3C(=O)CNC(=O)OCc3ccccc3)ccc1C21OC(=O)c2ccccc21)OCc1ccccc1 [Z-GP-M, (carbobenzyloxycarbonyl-Gly-Pro)2 Rho 110 (modified)] | – | – | – | – | 3.05 | 3.33 | 1.79 | 4.47 | 1.92 | 2.99 | 3.45 | – | – | 3.44 | 2.09 | 4.09
NC(=O)CC[C@H](N)C(=O)N[C@@H](CO)C(=O)Nc1ccc2c(c1)Oc1cc(NC(=O)[C@H](CO)NC(=O)[C@@H](N)CCC(N)=O)ccc1C21OC(=O)c2ccccc21 (relative stereo) [GLN--SER*] | 13.7 and 12.7 | – | 11.9 and 6.1 | – | – | – | – | – | – | – | – | – | – | – | – | –
C[C@H](NC(=O)[C@@H](N)CCCCN)C(=O)Nc1ccc2c(c1)Oc1cc(NC(=O)[C@H](C)NC(=O)[C@@H](N)CCCCN)ccc1C21OC(=O)c2ccccc21 [KA, (Lys-Ala)2 Rho 110] | – | – | – | – | 1.04 | 1.95 | – | 2.22 | 6.93 | 2.39 | 1.39 | 1.75 | – | 1.53 | 1.93 | 1.19
